Data: ChEMBL document CHEMBL4699602, “Stapled and Xenopus Glucagon-Like Peptide 1 (GLP-1)-Based Dual GLP-1/Gastrin Receptor Agonists with Improved Metabolic Benefits in Rodent Models of Obesity and Diabetes” (J Med Chem, 2020)
Calls of active or inactive are those of the source. The calls are words filed in the database; no cut-off is given here. *1 amine or outer side, *2 acyl side, *3 side chain or, on linkers, in order; H or OH if unused. Bridges are numbered along the chain shown (N, C = ends). [ ]: non-standard residue; d: D form. X1 = CCCCCCCCCCCCCCCC(=O)NCCCCCCNC(=O)C(CCCCNC(=O)CCN1C(=O)CC([*:1])C1=O)NC(=O)CCN1C(=O)CC([*:2])C1=O; AEEA = NCCOCCOCC(=O)O; Aib = CC(C)(N)C(=O)O

Experiments:
[1] = molecular target: T1, Cholecystokinin receptor type A (Homo sapiens, UniProt P32238); experiment: Agonist activity at human CCK-1R expressed in HEK293 cells assessed as stimulation of ERK phosphorylation incubated for 5 mins; format: cell-based
T1 sequence (P32238 whole entry): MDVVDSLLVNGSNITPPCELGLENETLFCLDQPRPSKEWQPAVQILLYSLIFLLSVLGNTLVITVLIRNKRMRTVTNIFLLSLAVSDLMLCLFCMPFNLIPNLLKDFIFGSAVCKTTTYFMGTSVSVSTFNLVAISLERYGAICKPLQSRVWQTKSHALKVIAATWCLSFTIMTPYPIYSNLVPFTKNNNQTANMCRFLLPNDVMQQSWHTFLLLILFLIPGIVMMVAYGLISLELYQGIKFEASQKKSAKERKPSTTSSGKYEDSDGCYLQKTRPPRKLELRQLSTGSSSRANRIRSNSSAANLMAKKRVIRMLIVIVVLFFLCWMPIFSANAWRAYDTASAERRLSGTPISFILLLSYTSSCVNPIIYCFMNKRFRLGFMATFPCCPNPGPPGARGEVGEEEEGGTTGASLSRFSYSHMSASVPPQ

[2] = system: Mus musculus; experiment: Improvement in glucose tolerance in C57BL/6 mouse model of high-fat diet induced obesity at 25 nmol/kg, sc BID for 21 days relative to control; format: functional, organism-based; conditions: time 21.0 day
[3] = system: Mus musculus; experiment: Insulinotropic activity in db/db mouse assessed as improvement in plasma insulin level at 25 nmol/kg, ip dosed 30 mins before test and measured up to 60 mins by OGTT method; format: functional, organism-based; conditions: time 90.0 min
[4] = system: Mus musculus; experiment: Hypoglycemic activity in db/db mouse assessed as improvement in glucose tolerance at 25 nmol/kg, ip dosed 30 mins before test and measured up to 120 mins by OGTT method; format: functional, organism-based; conditions: time 150.0 min
[5] = Toxicity in Sprague-Dawley rat assessed as induction of kaolin intake at 25 nmol/kg, sc BID for 10 days by Kaolin consumption test; format: organism-based; conditions: in vivo, 240 h, time 10 day
[6] = system: Mus musculus; experiment: Improvement in fasted blood glucose level in db/db mouse at 25 nmol/kg, sc BID for 6 weeks followed by another 6 week saline treatment relative to control; format: functional, organism-based
[7] = system: Rattus norvegicus; experiment: Reduction of food intake in Sprague-Dawley rat at 25 nmol/kg, sc BID for 12 days; format: functional, organism-based; conditions: time 12.0 day
[8] = Hepatotoxicity in ICR mouse assessed as effect on aspartate aminotransferase level at 1000 nmol/kg, sc BID for 14 days; format: toxicity, organism-based; conditions: in vivo, 336 h, time 14 day
[9] = system: INS1; experiment: Toxicity in rat INS1 cells assessed as reduction cell viability up to 1000 nM after 24 hrs by MTT assay; format: cell-based; conditions: ins1, 24 h
[10] = system: Mus musculus; experiment: Inhibition of pancreatic non-beta cell area (alpha-cell) level in db/db mouse at 25 nmol/kg, sc BID for 21 days relative to control; format: functional, organism-based; conditions: time 21.0 day
[11] = molecular target: Glucagon-like peptide 1 receptor (Homo sapiens, UniProt P43220); experiment: Agonist activity at human GLP-1R expressed in HEK293 cells assessed as stimulation of cAMP accumulation incubated for 20 mins; format: functional, cell-based
[12] = system: Mus musculus; experiment: Improvement in fasted blood glucose level in db/db mouse at 25 nmol/kg, sc BID for 21 days relative to control; format: functional, organism-based; conditions: time 21.0 day
[13] = system: Mus musculus; experiment: Inhibition of liquid-phase gastric emptying in 6 hrs fasted ICR mouse assessed as reduction in blood acetaminophen concentration at 25 nmol/kg, ip dosed 30 mins before acetaminophen dosing by LC-MS/MS analysis; format: functional, organism-based
[14] = system: Mus musculus; experiment: Inhibition of solid-phase gastric emptying in fasted ICR mouse at 25 nmol/kg, ip measured after 4 hrs by LC-MS/MS analysis; format: functional, organism-based
[15] = system: Mus musculus; experiment: Reduction in Hb1Ac level in db/db mouse at 25 nmol/kg, sc BID for 6 weeks followed by another 6 week saline treatment relative to control; format: functional, organism-based
[16] = system: Mus musculus; experiment: Improvement in HbA1c level in db/db mouse at 25 nmol/kg, sc BID for 21 days relative to control; format: functional, organism-based; conditions: time 21.0 day
[17] = system: Mus musculus; experiment: Reduction in body fat content in C57BL/6 mouse model of high-fat diet induced obesity at 25 nmol/kg, sc BID for 21 days relative to control; format: functional; set-up: scale not given: the % may be the effect or the level left; conditions: time 21 day
[18] = system: Mus musculus; experiment: Improvement in pancreatic beta cell area level in db/db mouse at 25 nmol/kg, sc BID for 21 days relative to control; format: functional, organism-based; conditions: time 21.0 day
[19] = AUC (0 to infinity) in ICR mouse at 50 nmol/kg, sc up to 24 hrs by LC-MS/MS analysis; format: ADME, organism-based; set-up: route subcutaneous, dose 50 nmol/kg, time <=24; conditions: in vivo
[20] = Tmax in ICR mouse at 50 nmol/kg, sc up to 24 hrs by LC-MS/MS analysis; format: ADME, organism-based; conditions: in vivo
[21] = system: Mus musculus; experiment: Hypoglycemic activity in non-fasted db/db mouse assessed as improvement in glucose tolerance at dosed intraperitoneally 30 mins before test and measured up to 120 mins by OGTT method; format: functional, organism-based; conditions: time 150.0 min
[22] = system: Mus musculus; experiment: Reduction in fasting blood glucose in C57BL/6 mouse model of high-fat diet induced obesity at 25 nmol/kg, sc BID for 21 days relative to control; format: functional, organism-based; conditions: time 21.0 day
[23] = system: Mus musculus; experiment: Improvement in glucose tolerance in db/db mouse at 25 nmol/kg, sc BID for 6 weeks followed by another 6 week saline treatment relative to control; format: functional, organism-based
[24] = system: Mus musculus; experiment: […] activity in non-fasted db/db mouse assessed as improvement in glucose tolerance at dosed intraperitoneally 30 mins before test and measured up to 120 mins by OGTT method; format: functional, organism-based; conditions: time 150.0 min
[25] = system: INS1; experiment: Protection against glucotoxicity in rat INS1 cells assessed as recovery of cell viability after 24 hrs in presence of glucotoxicity media by MTT assay; format: functional, cell-based
[26] = molecular target: T2, Gastrin/cholecystokinin type B receptor (Homo sapiens, UniProt P32239); experiment: Agonist activity at human CCK-2R expressed in HEK293 cells assessed as stimulation of ERK phosphorylation incubated for 5 mins; format: cell-based
T2 sequence (P32239 whole entry): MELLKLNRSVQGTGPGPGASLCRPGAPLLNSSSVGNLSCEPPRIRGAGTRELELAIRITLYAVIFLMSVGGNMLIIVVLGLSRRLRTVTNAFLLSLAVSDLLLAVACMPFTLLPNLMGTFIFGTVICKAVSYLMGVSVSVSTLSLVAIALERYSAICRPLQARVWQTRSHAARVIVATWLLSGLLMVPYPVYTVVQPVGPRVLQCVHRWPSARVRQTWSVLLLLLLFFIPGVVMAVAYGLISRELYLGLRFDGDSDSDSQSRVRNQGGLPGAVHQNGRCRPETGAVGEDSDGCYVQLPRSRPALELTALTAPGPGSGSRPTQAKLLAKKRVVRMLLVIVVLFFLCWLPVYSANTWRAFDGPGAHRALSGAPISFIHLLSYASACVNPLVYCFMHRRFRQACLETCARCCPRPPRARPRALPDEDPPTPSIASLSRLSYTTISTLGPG

[27] = Hepatotoxicity in ICR mouse assessed as effect on alanine aminotransferase level at 1000 nmol/kg, sc BID for 14 days; format: toxicity, organism-based; conditions: in vivo, 336 h, time 14 day
[28] = system: Mus musculus; experiment: Reduction in body weight in C57BL/6 mouse model of high-fat diet induced obesity at 25 nmol/kg, sc BID for 21 days relative to control; format: functional; set-up: scale not given: the % may be the effect or the level left; conditions: time 21 day
[29] = Half life in ICR mouse at 50 nmol/kg, sc up to 24 hrs by LC-MS/MS analysis; format: ADME, organism-based; conditions: in vivo
[30] = system: Mus musculus; experiment: Hypoglycemic activity in db/db mouse assessed as decrease in glucose excursion at 25 nmol/kg, ip dosed 30 mins before test and measured up to 120 mins by OGTT method; format: functional, organism-based; conditions: time 150.0 min
[31] = Toxicity in Sprague-Dawley rat assessed as induction of kaolin intake at 25 nmol/kg, ip after 24 hrs by Kaolin consumption test; format: organism-based; conditions: in vivo
[32] = system: Mus musculus; experiment: Reduction in serum triglyceride in C57BL/6 mouse model of high-fat diet induced obesity at 25 nmol/kg, sc BID for 21 days relative to control; format: functional, organism-based; conditions: time 21.0 day
[33] = system: Mus musculus; experiment: Reduction in cumulated food intake in db/db mouse at 25 nmol/kg, sc BID for 21 days relative to control; format: functional, organism-based; conditions: time 21.0 day
[34] = Renal toxicity in ICR mouse assessed as effect on blood urea nitrogen level at 1000 nmol/kg, sc BID for 14 days; format: organism-based; conditions: in vivo, 336 h, time 14 day
[35] = system: Rattus norvegicus; experiment: Reduction of food intake in Sprague-Dawley rat at 25 nmol/kg, ip after 24 hrs; format: functional, organism-based
[36] = system: Mus musculus; experiment: Reduction in serum cholesterol in C57BL/6 mouse model of high-fat diet induced obesity at 25 nmol/kg, sc BID for 21 days relative to control; format: functional, organism-based; conditions: time 21.0 day
[37] = system: Mus musculus; experiment: Reduction in body weight gain in db/db mouse at 25 nmol/kg, sc BID for 21 days relative to control; format: functional, organism-based; conditions: time 21.0 day
[38] = Renal toxicity in ICR mouse assessed as effect on serum creatinine level at 1000 nmol/kg, sc BID for 14 days; format: organism-based; conditions: in vivo, 336 h, time 14 day
[39] = system: Mus musculus; experiment: Improvement in pancreatic islet area and number level in db/db mouse at 25 nmol/kg, sc BID for 21 days relative to control; format: functional, organism-based; conditions: time 21.0 day
[40] = system: Mus musculus; experiment: Improvement in insulin content in db/db mouse at 25 nmol/kg, sc BID for 21 days relative to control; format: functional, organism-based; conditions: time 21.0 day

Chain of Glucagon-like peptide 1 receptor (P43220 whole entry): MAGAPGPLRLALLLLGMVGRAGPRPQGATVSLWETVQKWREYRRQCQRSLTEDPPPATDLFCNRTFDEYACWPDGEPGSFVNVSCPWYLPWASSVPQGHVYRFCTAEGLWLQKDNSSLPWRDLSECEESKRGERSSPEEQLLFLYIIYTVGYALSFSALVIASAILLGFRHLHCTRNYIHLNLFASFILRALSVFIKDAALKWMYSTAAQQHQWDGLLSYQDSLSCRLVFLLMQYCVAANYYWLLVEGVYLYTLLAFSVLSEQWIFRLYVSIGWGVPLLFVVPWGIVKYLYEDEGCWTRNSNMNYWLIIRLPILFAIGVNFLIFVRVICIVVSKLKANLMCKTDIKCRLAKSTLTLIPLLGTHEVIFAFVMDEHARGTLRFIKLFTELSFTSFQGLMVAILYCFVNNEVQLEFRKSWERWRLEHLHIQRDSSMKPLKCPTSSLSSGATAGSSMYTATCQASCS

H-H[Aib]EGTYTNDVTEYCEEEAAKCFIEWLIKGKPSSGAPPPS[AEEA][AEEA]YGWLDF-NH2 (linker 14-21 via X1)
EC50 [1]: > 1000 nM | Activity [2]: Active | Activity [3]: Active | Activity [4]: Active | Activity [5]: Non-Toxic | Activity [6]: Active | Activity [7]: Active | Activity [8]: Non-Toxic | Activity [9]: Non-Toxic | inhibition [10]: Active | EC50 [11]: 0.022 nM | Activity [12]: Active | inhibition [13]: Active | inhibition [14]: Active | Activity [15]: Active | Activity [16]: Active | Activity [17]: 32.2% | Activity [18]: Active | AUC(0-inf) [19]: 15900 ng·h/mL | Tmax [20]: 4 h | Activity [21]: Dose-dependent effect | Activity [22]: Active | Activity [23]: Active | Activity [24]: Dose-dependent effect | Activity [25]: Dose-dependent effect | EC50 [26]: 7.3 nM | Activity [27]: Non-Toxic | Activity [28]: 26.3% | half-life [29]: 4.4 h | Activity [30]: Active | Activity [31]: Non-Toxic | Activity [32]: Active | Activity [33]: Active | Activity [34]: Non-Toxic | Activity [35]: Active | Activity [36]: Active | Activity [37]: Active | Activity [38]: Non-Toxic | Activity [39]: Active | Activity [40]: Active
